Measured values: patent US20200333357A1, “NOVEL TFEB PATHWAY AGONISTS FOR METABOLIC DISEASES AND AGEING” (The Board of Regents of the University of Texas System, priority 2017, published 2020)
“Also recorded” adds a separate entry of the source. Structures can show the parent of a compound that is named as a salt.

What was measured:
[1] = system: TFEB; assay: GFP-TFEB nuclear translocation (high-content screen, dose-response, confocal imaging); format: cell-based, human; conditions: for effect of calcineurin inhibition (FK506, CsA, siPPP3CB) on TFEB activation: 5 μM FK506, 10 μM CsA or siPPP3CB; for effect of Compound C (AMPK inhibitor) and STO-609 (CaMKKβ inhibitor) on induced TFEB nuclear translocation: 10 μM compound C, 25 μM STO-609, 4 hr; for effect of IP3R inhibitor Xestosporin C or siIP3R1 on induced TFEB nuclear translocation: 25 μM Xesto 1 hr pretreatment, time-dependent; for effect of GPN pretreatment (lysosomal Ca2+ depletion) on induced TFEB nuclear translocation: 200 μM GPN, 30 min pretreatment; for hit status in the TFEB screen overlapping with the autophagy (GFP-LC3) screen: compounds added for 4 hr, overlap with top 30 hits of autophagy screen; for effect of RNAi-mediated MCOLN1 depletion on induced TFEB nuclear translocation: siMCOLN1
Description: GFP-TFEB HeLa cells were seeded in 384-well plates. Compounds were added for 4 hr the following day. Bafilomycin A1 (250 nM) treated cells were used as positive controls and DMSO-treated cells as negative controls. […] Images were collected using 405 nm and 488 nm laser lines with DAPI and FITC emission filters. Images were analyzed using the GE IN Cell Analyzer Workstation software. Briefly, nuclei were segmented using the Hoechst channel and the cytoplasm was segmented using the GFP channel. For each cell, the mean GFP intensity in each compartment was measured and used to calculate the nuclear to cytoplasmic (N/C) TFEB-GFP ratio. The same method as mentioned above was used to generate the top 30 compounds with highest condensed activity values and robust Z score values.
GFP-TFEB HeLa cells treated with compounds or DMSO were fixed and stained with Hoechst. Images from at least 3 different fields per sample were acquired using a 40× objective on a Zeiss confocal microscope and analyzed with ImageJ. 20-30 cells were evaluated from each image for each sample, and 3 independent experiments were performed to generate the graphed values.

[2] = system: NFAT; assay: Endogenous NFAT nuclear translocation; format: cell-based; conditions: high or intermediate doses
Description: (§1) SFIGS. […] (SFIG. 4B) Representative images of GFP-TFEB HeLa cells treated with 3.3 μM AD or in combination with 5 μM FK506, 10 μM CsA or both. […] Scale bar, 20 μm. […] Scale bar, 20 μm. […] Scale bar, 20 μm. (SFIGS. 4F-G) Immunoblots of wide-type HeLa cells treated with various doses (starting from 3.3 μM with a 3-fold dilution, and right-most lane is DMSO) of AD and IKA.

[3] = system: AMPK; assay: AMPK and ACC phosphorylation immunoblots; format: cell-based, human; conditions: HeLa cells, dose-dependent
Description: as §1

[4] = system: C57BL/6J mice fed a high-fat diet; assay: High-fat diet mouse model for in vivo compound delivery; conditions: for known TFEB target genes mRNA in liver and muscle: HFD mice treated with AD or IKA (PEG-PLA nanoparticles i.v.); for high fat diet-induced steatosis (liver histology): 3 weeks, DG oral, AD and IKA i.v. in PEG-PLA nanoparticles; for body weight/composition and blood chemistry: AD 1 mg kg-1 or IKA 0.5 mg kg-1 in PEG-PLA nanoparticles i.v.; for expression of Ppargc1α, Ppar1α and Fgf21: liver
Description: Total RNA was isolated from MEFs or mouse tissues using RNeasy minipreps (QIAGEN). Complementary DNA (cDNA) was synthesized with the High capacity RNA-to-cDNA kit (Applied biosystems), and qRT-PCR was performed using TaqMan® Gene Expression Assays (Applied biosystems) for the indicated genes on the LightCycler System (Roche Applied Science). Gapdh was used to normalize RNA input. The mouse probes used in this study were: Tfeb (Mm00448968_m1), Ctsa (Mm00447197_m1), Mcoln 1 (Mm00522550_m1), Ppara (Mm00440939_m1), Ppargc1a (Mm01208835_m1), Fgf21 (Mm00840165_g1) and Gapdh (Mm99999915_g1), and the human probes used were TFEB (Hs00292981_m1), CTSA (Hs00264902_m1), MCOLN1 (Hs01100653_m1), PPARGC1A (Hs00173304_m1), PPARA (Hs00947536_m1), UVRAG (Hs01075434_m1), GAPDH (Hs02758991_g1) and p62/SQSTM1 (Hs01061917_g1). All probes were from Thermo Fisher Scientific Inc.
All mouse experiments were approved and carried out following the ethical guidelines established by the Institutional Animal Care and Use Committee at UT Southwestern Medical Center. The investigators were not blinded to allocation during experiments and outcome assessment. Four to six weeks old male C57BL/6J mice were randomly divided into groups fed a regular diet (Harlan Teklad) or a high-fat diet (HFD) containing 60% fat (Research Diets). After one month, the HFD mice were grouped so that the average body weights of mice in each group were similar. The grouped mice were orally administered DG (2.5 mg kg-1) or its solvent 50% HPβCD solution, or intravenously injected with AD (1 mg kg-1) or IKA (0.5 mg kg-1) encapsulated in the PEG-PLA nanoparticles or empty nanoparticles, three times a week for three weeks. Body weight and food intake were measured twice a week before treatment and every day after treatment in the middle of the light period. The cage tops containing food pellets were weighed, as well as the spilled food in the bottom of the cage. The food intake was corrected for spillage.
At the end of the treatment, the body composition of each mouse was analyzed by EchoMRI (Echo Medical Systems LLC) according to the manufacturer's instructions.
For glucose tolerance tests, the mice were orally administered 1 mg g-1 glucose (Sigma-Aldrich) after a 4 hr fast. For insulin tolerance tests, the mice were intraperitoneally injected with 0.75 milliunit g-1 insulin (Humulin R, Eli Lily) after a 4 hr fast. Blood was drawn from tail veins at indicated time points after injection. Experiments were performed during light period. Serum glucose levels were analyzed using commercial glucose reagents (Sigma).
At the end of the treatment, blood was collected from the orbital plexus under anesthesia. Serum was frozen in aliquots and stored at −20° C. for further analysis. Specific enzyme kits were used to detect serum levels of triglyceride (Fisher Scientific), cholesterol (Fisher Scientific) and glucose (Sigma-Aldrich).
Livers and other organs were dissected and embedded in OCT. Cryostat sections were cut at 10 μm. The sections were stored at −80° C. and subjected to haematoxylin/eosin and oil red O staining following standard protocol. The immunohistochemistry (IHC) staining of p62 was performed following the protocol of Cell Signaling Technology. The primary antibody was from Abcam, and the SignalStain® boost IHC detection reagent and DAB substrate kit were from Cell Signaling Technology. All the sections were imaged using a NanoZoomer 2.0-HT Digital slide scanner (Hamamatzu) and processed using NDP viewer software.

[5] = HFD mice, three times a week for three weeks
[6] = HFD mice, DG 2.5 mg kg-1 oral, three times a week for three weeks

## CCCCC(CC)CNC(=N)NC(=N)NCCCCCCNC(=N)NC(=N)NCC(CC)CCCC (stereo not shown) [AD, alexidine dihydrochloride]
[1]
  reversal of effect on TFEB by cell-permeable pyruvate: reversed
  effect of calcineurin inhibition (FK506, CsA, siPPP3CB) on TFEB activation: block TFEB activation
  effect of Compound C (AMPK inhibitor) and STO-609 (CaMKKβ inhibitor) on induced TFEB nuclear translocation: inhibited
  effect of IP3R inhibitor Xestosporin C or siIP3R1 on induced TFEB nuclear translocation: attenuated
  effect of GPN pretreatment (lysosomal Ca2+ depletion) on induced TFEB nuclear translocation: sufficient to disrupt TFEB nuclear translocation
  effect of RNAi-mediated MCOLN1 depletion on induced TFEB nuclear translocation: suppressed
[1]; dihydrochloride
  hit status in the TFEB screen overlapping with the autophagy (GFP-LC3) screen: top 18 hits; also recorded: top scoring hits
[2]
  nuclear translocation of NFAT: induced dose-dependent nuclear translocation
[3]
  activating phosphorylation of AMPK and its substrate ACC: induced activating phosphorylation
[4]
  known TFEB target genes mRNA in liver and muscle: upregulated in the liver rather than in the muscle
[4]; HFD mice
  high fat diet-induced steatosis (liver histology): amelioration
  expression of Ppargc1α, Ppar1α and Fgf21: upregulation
[4]; [5]
  body weight/composition and blood chemistry: significant normalization

## CC[C@H]1[C@@H]2C=C[C@@H]3[C@H]4C/C=C\C(=O)NCCC[C@@H]5NC(=O)/C(=C(O)/C=C/[C@@H]4C[C@@H]3[C@H]2C[C@H]1C)C5=O [IKA, ikarugamycin]
[1]
  reversal of effect on TFEB by cell-permeable pyruvate: reversed
  effect of calcineurin inhibition (FK506, CsA, siPPP3CB) on TFEB activation: calcineurin independent
  effect of Compound C (AMPK inhibitor) and STO-609 (CaMKKβ inhibitor) on induced TFEB nuclear translocation: inhibited
  effect of IP3R inhibitor Xestosporin C or siIP3R1 on induced TFEB nuclear translocation: attenuated
  effect of GPN pretreatment (lysosomal Ca2+ depletion) on induced TFEB nuclear translocation: almost no effect
[1]; 300 nM TG, 30 min
  effect of thapsigargin (ER Ca2+ depletion) on induced TFEB nuclear translocation: selectively decreased
[2]
  nuclear translocation of NFAT: not
[3]
  activating phosphorylation of AMPK and its substrate ACC: induced activating phosphorylation
[4]
  known TFEB target genes mRNA in liver and muscle: upregulated in the liver rather than in the muscle
[4]; HFD mice
  high fat diet-induced steatosis (liver histology): amelioration
  expression of Ppargc1α, Ppar1α and Fgf21: upregulation
[4]; [5]
  body weight/composition and blood chemistry: significant normalization

## C[C@H]1O[C@@H](O[C@H]2[C@@H](O)C[C@H](O[C@H]3[C@@H](O)C[C@H](O[C@H]4CC[C@@]5(C)[C@H](CC[C@@H]6[C@@H]5C[C@@H](O)[C@]5(C)[C@@H](C7=CC(=O)OC7)CC[C@]65O)C4)O[C@@H]3C)O[C@@H]2C)C[C@H](O)[C@@H]1O [DG, digoxin, reference compound]
[1]
  reversal of effect on TFEB by cell-permeable pyruvate: not
  effect of Compound C (AMPK inhibitor) and STO-609 (CaMKKβ inhibitor) on induced TFEB nuclear translocation: not
  effect of IP3R inhibitor Xestosporin C or siIP3R1 on induced TFEB nuclear translocation: attenuated
  effect of GPN pretreatment (lysosomal Ca2+ depletion) on induced TFEB nuclear translocation: sufficient to disrupt TFEB nuclear translocation
  hit status in the TFEB screen overlapping with the autophagy (GFP-LC3) screen: top 18 hits; also recorded: top scoring hits
  effect of RNAi-mediated MCOLN1 depletion on induced TFEB nuclear translocation: suppressed
[1]; compound at EC50
  effect of calcineurin perturbation on TFEB activation: inhibited to some extent
[1]; compound at EC90
  effect of calcineurin perturbation on TFEB activation: resistant
[2]
  nuclear translocation of NFAT: not
[3]
  activating phosphorylation of AMPK and its substrate ACC: not
[4]; HFD mice
  high fat diet-induced steatosis (liver histology): amelioration
  expression of Ppargc1α, Ppar1α and Fgf21: upregulation
[4]; [6]
  body composition: normalized
  body weight: normalized
  circulating cholesterol: normalized
  circulating glucose: normalized
  circulating insulin levels: normalized
  circulating triglycerides: normalized
